Measured values published in the SangsterLogP compilation.

Assay: method code SF-HPLC, from DOI: 10.1002/qsar.200860138
Conditions: pH 3.0

SMILES | logD
O=C(O)Cn1cc(C(=O)c2ccccc2)cc1C(=O)c1ccccc1 | 2.12
O=C(O)Cn1ccc(C(=O)c2ccc(Cl)cc2)c1 | 1.95
O=C(O)Cn1ccc(-c2nc3ccccc3s2)c1 | 2.22
Cc1ccc(C(=O)c2ccn(CC(=O)O)c2)cc1 | 1.27
COc1ccc(C(=O)c2ccn(CC(=O)O)c2)cc1 | 1.57
O=C(O)Cc1ccc(C(=O)c2ccccc2)[nH]1 | 1.87
COc1ccc(C(=O)c2cccn2CC(=O)O)cc1 | 1.65
O=C(O)Cn1ccc(C(=O)c2ccc(C(F)(F)F)cc2)c1 | 2
O=C(O)Cn1cc(C(=O)c2ccccc2)c2ccccc21 | 2.57
O=C(O)Cn1ccc(C(=O)c2ccc([N+](=O)[O-])cc2)c1 | 0.93
COc1ccc(C(=O)c2cc(C(=O)c3ccc(OC)cc3)n(CC(=O)O)c2)cc1 | 3.15
O=C(O)Cn1ccc(C(=O)c2ccc3ccccc3c2)c1 | 2.27
